Counter-ions that a name gives are not always drawn. Like-named read-outs stand apart in the source and are kept apart here.
Legend:
[1] = molecular target: T1, recombinant human SOS1 polypeptide (amino acids 560-1049) (Homo sapiens, UniProt Q07889); assay: HTRF displacement assay: inhibition of labeled tracer binding to SOS1
T1 construct: corresponding to amino acids 560-1049, expressed in E. Coli; made in house; host or cells: E. coli
T1 sequence (Q07889 560-1049): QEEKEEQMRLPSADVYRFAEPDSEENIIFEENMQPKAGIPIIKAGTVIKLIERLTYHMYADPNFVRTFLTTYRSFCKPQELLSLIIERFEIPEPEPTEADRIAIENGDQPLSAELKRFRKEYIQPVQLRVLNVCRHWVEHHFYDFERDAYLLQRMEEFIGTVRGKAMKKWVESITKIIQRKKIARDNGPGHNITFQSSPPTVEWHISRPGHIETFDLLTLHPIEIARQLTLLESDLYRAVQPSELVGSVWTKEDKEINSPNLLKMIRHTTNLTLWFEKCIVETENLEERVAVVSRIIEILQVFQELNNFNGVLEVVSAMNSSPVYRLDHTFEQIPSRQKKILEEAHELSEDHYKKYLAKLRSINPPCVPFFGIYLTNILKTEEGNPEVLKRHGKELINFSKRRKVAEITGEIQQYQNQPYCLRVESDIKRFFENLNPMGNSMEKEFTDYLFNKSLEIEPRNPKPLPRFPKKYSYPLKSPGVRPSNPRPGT
Experimental: The ability of a compound of Formula (I) to bind to SOS1 was measured using a HTRF displacement assay. […] After a 1-hour incubation at room temperature, the HTRF signal was measured using Clairostar plate reader (BMG Labtech) according to the manufacturer's instructions. Excitation filter EX-TR was used, and emission 1 was detected at 650-610 nm and emission 2 detected at 620-610 nm. The HTRF ratio was calculated using the formula: [emission 1/emission 2]*10000.
Background signals were calculated from well with a 10 μM inhibitor, known to inhibit 100% at that concentration. The background subtracted signals were converted to % binding relative to DMSO controls. Data were analyzed using XLFIT software (IDBS) using a Morrison equation for competitive binding and Ki's were generated compound of Formula (I).

[2] = test system: pERK in MKN1 cells; assay: pERK inhibition, In-Cell Western (LI-COR Odyssey), MKN1 cells; assay type: cell-based; conditions: Homo sapiens
Method in brief: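 MKN1 cells were exposed for about 0.5–1 h at 37 °C to nine 3-fold dilutions starting at 10 µM. Cells were then fixed in formaldehyde, permeabilised with methanol, and immunostained for pERK and GAPDH with near-infrared secondary antibodies. GAPDH-normalised pERK signal relative to vehicle gave % inhibition, from which IC50 was fitted.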

[3] = Table A, Morrison equation for competitive binding
[4] = MKN-1, Table B, MKN1 or H358 cells (table does not say which), 0.5-1 hour incubation, read-out: IC50 (nM), pERK inhibition
[5] = Table A1, Morrison equation for competitive binding
[6] = MKN-1, Table B1, MKN1 or H358 cells (table does not say which), 0.5-1 hour incubation, read-out: IC50 (nM), pERK inhibition

SMILES | Ki [1, 3] [nM] | IC50 [2, 4] [nM] | Ki [1, 5] [nM] | IC50 [2, 6] [nM] | IC50 ([2]; MKN-1, read-out: IC50 (nM), pERK inhibition) [nM]
Cc1c(C#N)cccc1[C@@H](C)Nc1nnc(C)c2cnc(C3CCN(C)CC3)cc12 [Example 6-14, (R)-2-methyl-3-(1-((4-methyl-7-(1-methylpiperidin-4-yl)pyrido[3,4-d]pyridazin-1-yl)amino)ethyl)benzonitrile] | 8.89 | 468 |  |  | 
Cc1c(C#N)cccc1[C@@H](C)Nc1nnc(C)c2cnc(-c3ccc(=O)n(C)c3)cc12 [Example P-174, (R)-2-methyl-3-(1-((4-methyl-7-(1-methyl-6-oxo-1,6-dihydropyridin-3-yl)pyrido[3,4-d]pyridazin-1-yl)amino)ethyl)benzonitrile] |  |  | 43.5 | 1330 | 
Cc1c(C#N)cccc1[C@@H](C)Nc1nnc(C)c2cnc(N3CCn4cnnc4C3)cc12 [Example P-21, (R)-3-(1-((7-(5,6-dihydro-[1,2,4]triazolo[4,3-a]pyrazin-7(8H)-yl)-4-methylpyrido[3,4-d]pyridazin-1-yl)amino)ethyl)-2-methylbenzonitrile] |  |  | 2.17 | 2560 | 
Cc1c(C#N)cccc1[C@@H](C)Nc1nnc(C)c2cnc(N(C)C[C@@H]3CCCN3C)cc12 [Example 1-57, 2-methyl-3-((R)-1-((4-methyl-7-(methyl(((S)-1-methylpyrrolidin-2-yl)methyl)amino)pyrido[3,4-d]pyridazin-1-yl)amino)ethyl)benzonitrile] | 1.59 | 39.2 |  |  | 
CC(=O)N1CC2(CCN2c2cc3c(N[C@H](C)c4cccc(C#N)c4C)nnc(C)c3cc2F)C1 [Example P-216, (R)-3-(1-((7-(6-acetyl-1,6-diazaspiro[3.3]heptan-1-yl)-6-fluoro-4-methylphthalazin-1-yl)amino)ethyl)-2-methylbenzonitrile formic acid salt] |  |  | 1.98 |  | 27.9
CCN1C[C@H]2C[C@@H]1CN2c1cc2c(N[C@H](C)c3cccc(C#N)c3C)nnc(C)c2cn1 [Example 1-37, 3-((R)-1-((7-((1R,4R)-5-ethyl-2,5-diazabicyclo[2.2.1]heptan-2-yl)-4-methylpyrido[3,4-d]pyridazin-1-yl)amino)ethyl)-2-methylbenzonitrile] | 1.61 | 19.7 |  |  | 
Cc1c([C@@H](C)Nc2nnc(C)c3cc(F)c(N4CCOCC4)cc23)cc(N)nc1C(F)(F)F [Example 4-22, (R)-N-(1-(6-amino-3-methyl-2-(trifluoromethyl)pyridin-4-yl)ethyl)-6-fluoro-4-methyl-7-morpholinophthalazin-1-amine] | 22 | 49 |  |  | 
CN[C@H]1CCN(c2cc3c(N[C@H](C)c4cccc(C#N)c4C)nnc(C)c3cn2)C1 [Example 1-3, 2-methyl-3-((R)-1-((4-methyl-7-((S)-3-(methylamino)pyrrolidin-1-yl)pyrido[3,4-d]pyridazin-1-yl)amino)ethyl)benzonitrile] | 1.42 | 95.1 |  |  | 
Cc1nnc(N[C@H](C)c2cccc(C(C)(F)F)c2F)c2cc(N(C)C)ncc12 [Example P-170, (R)-N1-(1-(3-(1,1-difluoroethyl)-2-fluorophenyl)ethyl)-N7,N7,4-trimethylpyrido[3,4-d]pyridazine-1,7-diamine] |  |  | 2.18 | 192 | 
CNc1cc2c(N[C@H](C)c3cccc(C#N)c3C)nnc(C)c2cc1F [Example P-221, (R)-3-(1-((6-fluoro-4-methyl-7-(methylamino)phthalazin-1-yl)amino)ethyl)-2-methylbenzonitrile] |  |  | 8.75 | 154 | 
CO[C@H]1CCN(c2cc3c(N[C@H](C)c4cccc(C#N)c4C)nnc(C)c3cn2)C1 [Example 1-48, 3-((R)-1-((7-((S)-3-methoxypyrrolidin-1-yl)-4-methylpyrido[3,4-d]pyridazin-1-yl)amino)ethyl)-2-methylbenzonitrile] | 2.02 | 39.2 |  |  | 
CCN(CC)C1(C)CN(c2cc3c(N[C@H](C)c4cccc(C#N)c4C)nnc(C)c3cn2)C1 [Example 1-2, (R)-3-(1-((7-(3-(diethylamino)-3-methylazetidin-1-yl)-4-methylpyrido[3,4-d]pyridazin-1-yl)amino)ethyl)-2-methylbenzonitrile] | 2.22 | 126 |  |  | 
Cc1c(C#N)cccc1[C@@H](C)Nc1nnc(C)c2cnc(N3CC4(CN(CCO)C4)C3)cc12 [Example 1-61, (R)-3-(1-((7-(6-(2-hydroxyethyl)-2,6-diazaspiro[3.3]heptan-2-yl)-4-methylpyrido[3,4-d]pyridazin-1-yl)amino)ethyl)-2-methylbenzonitrile] | 0.797 | 1340 |  |  | 
Cc1nnc(N[C@H](C)c2cccc(C(C)(F)F)c2F)c2cc(-c3ccc(=O)n(C)c3)c(F)cc12 [Example P-173, (R)-5-(4-((1-(3-(1,1-difluoroethyl)-2-fluorophenyl)ethyl)amino)-7-fluoro-1-methylphthalazin-6-yl)-1-methylpyridin-2(1H)-one] |  |  | 8.31 | 573 | 
Cc1c(C#N)cccc1[C@@H](C)Nc1nnc(C)c2cnc(N3CCS(=O)(=O)CC3)cc12 [Example 1-110, (R)-3-(1-((7-(1,1-dioxidothiomorpholino)-4-methylpyrido[3,4-d]pyridazin-1-yl)amino)ethyl)-2-methylbenzonitrile] | 3.36 | 240 |  |  | 
Cc1c(C#N)cccc1[C@@H](C)Nc1nnc(N2CC[C@H](N(C)C)C2)c2cnc(N3C[C@H]4C[C@@H]3CO4)cc12 [Example P-176, 3-((R)-1-((7-((1R,4R)-2-oxa-5-azabicyclo[2.2.1]heptan-5-yl)-4-((S)-3-(dimethylamino)pyrrolidin-1-yl)pyrido[3,4-d]pyridazin-1-yl)amino)ethyl)-2-methylbenzonitrile] |  |  | 0.708 | 120 | 
Cc1c([C@@H](C)Nc2nnc(C)c3cnc(N4CC5(CN(C)C5)C4)cc23)cccc1C(F)(F)F [Example 1-32, (R)-4-methyl-N-(1-(2-methyl-3-(trifluoromethyl)phenyl)ethyl)-7-(6-methyl-2,6-diazaspiro[3.3]heptan-2-yl)pyrido[3,4-d]pyridazin-1-amine] | 0.163 | 32.3 |  |  | 
Cc1c(C#N)cccc1[C@@H](C)Nc1nnc(C)c2cnc(N3CC4(C3)CN(C(C)C)C4)cc12 [Example 1-62, (R)-3-(1-((7-(6-isopropyl-2,6-diazaspiro[3.3]heptan-2-yl)-4-methylpyrido[3,4-d]pyridazin-1-yl)amino)ethyl)-2-methylbenzonitrile] | 0.545 | 37.6 |  |  | 
Cc1c(C#N)cccc1[C@@H](C)Nc1nnc(C)c2c(C)nc(N3CCOCC3)cc12 [Example P-188, (R)-3-(1-((4,5-dimethyl-7-morpholinopyrido[3,4-d]pyridazin-1-yl)amino)ethyl)-2-methylbenzonitrile] |  |  | 2.5 | 49.1 | 
CCN1CCN(c2cc3c(N[C@H](C)c4cccc(C#N)c4C)nnc(C)c3cn2)[C@@H](C)C1 [Example 1-14, 3-((R)-1-((7-((S)-4-ethyl-2-methylpiperazin-1-yl)-4-methylpyrido[3,4-d]pyridazin-1-yl)amino)ethyl)-2-methylbenzonitrile] | 0.788 | 53.9 |  |  | 
Cc1c(C#N)cccc1[C@@H](C)Nc1nnc(C)c2cnc(N3C[C@H]4C[C@@H]3CN4C)cc12 [Example 1-35, 2-methyl-3-((R)-1-((4-methyl-7-((1R,4R)-5-methyl-2,5-diazabicyclo[2.2.1]heptan-2-yl)pyrido[3,4-d]pyridazin-1-yl)amino)ethyl)benzonitrile] | 1.19 | 18.4 |  |  | 
Cc1nnc(N[C@H](C)c2cc(N)cc(C(F)(F)F)c2F)c2cc(N3CC4CC(C3)O4)ccc12 [Example 1-95, N-((R)-1-(5-amino-2-fluoro-3-(trifluoromethyl)phenyl)ethyl)-7-(6-oxa-3-azabicyclo[3.1.1]heptan-3-yl)-4-methylphthalazin-1-amine] | 0.31 | 19.8 |  |  | 
Cc1c(C#N)cccc1[C@@H](C)Nc1nnc(C)c2cnc(N3CC[C@@H](O)C3)cc12 [Example 1-47, 3-((R)-1-((7-((R)-3-hydroxypyrrolidin-1-yl)-4-methylpyrido[3,4-d]pyridazin-1-yl)amino)ethyl)-2-methylbenzonitrile] | 1.33 | 50.3 |  |  | 
Cc1c(C#N)cccc1[C@@H](C)Nc1nnc(C)c2cc(F)c(N3CCN4CCOC[C@@H]4C3)cc12 [Example 4-11, 3-((R)-1-((6-fluoro-7-((S)-hexahydropyrazino[2,1-c][1,4]oxazin-8(1H)-yl)-4-methylphthalazin-1-yl)amino)ethyl)-2-methylbenzonitrile] | 5.77 | 162 |  |  | 
Cc1c(C#N)cccc1[C@@H](C)Nc1nnc(C)c2cnc(N3C[C@@H]4C[C@H]3CN4C)cc12 [Example 1-34, 2-methyl-3-((R)-1-((4-methyl-7-((1S,4S)-5-methyl-2,5-diazabicyclo[2.2.1]heptan-2-yl)pyrido[3,4-d]pyridazin-1-yl)amino)ethyl)benzonitrile] | 2.25 | 49.2 |  |  | 

Reference: patent US20250059182A1, “SOS1 INHIBITORS” (Mirati Therapeutics, Inc., priority 2021, published 2025)
